Values of other authors, collected in patent US5424332A, “Pharmaceutical composition and process for the production thereof” (priority 1993, dated 1995).

System: aflotoxin toxic effects

## O=C(O)/C=C/C(=O)O [fumaric acid]
  toxic effects of aflotoxin: reduces the toxic effects
